The test system of test [1] is OPM-2. Nature of the test: Cell Viability Assay (OPM-2 10 FBS). Type of test: cell-based, human. The settings on record: OPM-2 cells, CellTiter-Glo, read-out: OPM-2 10% FBS IC50 IP. Summed up:
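OPM-2 myeloma cells seeded at 3000 cells/well in RPMI 1640 with 10% FBS and exposed to serially diluted compounds for 16 h at 37° C., 5% CO2.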
(Cellular ATP, detected with luciferase, serves as a proxy for viable cell number.)

For test [2], the target named is Mcl-1/Bim interaction (Homo sapiens (Human), UniProt Q07820). Nature of the test: Cell Free Mcl-1: Bim Affinity Assay (Mcl-1 HTRF). Type of test: binding. The settings on record: TR-FRET, recombinant human Mcl-1(171-327), biotin-Bim(51-76); read-out: Mel-1 HTRF IC50. Summed up:
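TR-FRET competition assay: 0.1 nM His-tagged human Mcl-1(171-327) and 0.05 nM biotin-Bim(51-76) were pre-incubated 60 min with compound in 20 mM Hepes pH 7.5, 150 mM NaCl, Brij35, 1 mM DTT, then with Eu-anti-His/streptavidin-Xlent overnight. The 665/620 nm ratio was fitted by four-parameter model to IC50 (duplicates).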
On the technique in general: Time-resolved FRET reads energy transfer from a long-lived donor to a nearby acceptor.

By IC50 is commonly meant the point on the concentration scale where inhibition reaches its midpoint.

Where two headings read alike, the source gives them in different places.

Chain of Mcl-1/Bim interaction (Q07820 171-327): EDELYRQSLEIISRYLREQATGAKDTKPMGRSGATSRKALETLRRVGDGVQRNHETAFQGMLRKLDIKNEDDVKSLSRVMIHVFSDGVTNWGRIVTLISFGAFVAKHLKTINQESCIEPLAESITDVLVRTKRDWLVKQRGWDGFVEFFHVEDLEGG

`C[C@@H]1[C@@H](C)CCC[C@H](C2OCCO2)[C@@H]2CC[C@H]2CN2C[C@@]3(CCCc4cc(Cl)ccc43)COc3ccc(cc32)C(=O)NS1(=O)=O` [Example 3, (1S,3′R,6′R,7′S,11′S,12′R)-6-chloro-7′-(1,3-dioxolan-2-yl)-11′,12′-dimethyl-3,4-dihydro-2H,15′H-spiro[naphthalene-1,22′-[20]oxa[13]thia[1,14]diazatetracyclo [14.7.2.0~3,6~.0~19,24~]pentacosa[16,18,24]trien]-15′-one 13′,13′-dioxide]: the IC50 in test [1] (16 h) was found to be 926 nM; in test [2], 1.28 nM.

Consider `C[C@@H]1[C@@H](C)CCC[C@H](C2OCCO2)[C@@H]2CC[C@H]2CN2C[C@@]3(CCCc4cc(Cl)ccc43)COc3ccc(cc32)C(=O)NS1(=O)=O` [Example 4, (1S,3′R,6′R,7′S,11′S,12′R)-6-chloro-7′-(1,3-dioxolan-2-yl)-11′,12′-dimethyl-3,4-dihydro-2H,15′H-spiro[naphthalene-1,22′-[20]oxa[13]thia[1,14]diazatetracyclo [14.7.2.0~3,6~.0~19,24~]pentacosa[16,18,24]trien]-15′-one 13′,13′-dioxide], for which the figures for the IC50 in test [1] (16 h) and in test [2] were 2150 nM and 1.92 nM, respectively.

Regarding `C[C@@H]1[C@@H](C)CCC[C@H](C2OCCCO2)[C@@H]2CC[C@H]2CN2C[C@@]3(CCCc4cc(Cl)ccc43)COc3ccc(cc32)C(=O)NS1(=O)=O` [Example 7, (1S,3′R,6′R,7′S,11′S,12′R)-6-chloro-7′-(1,3-dioxan-2-yl)-11′,12′-dimethyl-3,4-dihydro-2H,15′H-spiro[naphthalene-1,22′-[20]oxa[13]thia[1,14]diazatetracyclo [14.7.2.0~3,6~.0~19,24~]pentacosa[16,18,24]trien]-15′-one 13′,13′-dioxide], the IC50 was 1070 nM in test [1] (16 h) and 0.949 nM in test [2].

`C[C@@H]1[C@@H](C)CCC[C@H](C2OCCCO2)[C@@H]2CC[C@H]2CN2C[C@@]3(CCCc4cc(Cl)ccc43)COc3ccc(cc32)C(=O)NS1(=O)=O` [Example 8, (1S,3′R,6′R,7′S,11′S,12′R)-6-chloro-7′-(1,3-dioxan-2-yl)-11′,12′-dimethyl-3,4-dihydro-2H,15′H-spiro[naphthalene-1,22′-[20]oxa[13]thia[1,14]diazatetracyclo [14.7.2.0~3,6~.0~19,24~]pentacosa[16,18,24]trien]-15′-one 13′,13′-dioxide]: the results for the IC50 in test [1] (16 h) and in test [2] were 7360 nM and 1.67 nM, respectively.

In the case of `C[C@@H]1[C@@H](C)CCC[C@H]([C@H]2OC[C@H](O)CO2)[C@@H]2CC[C@H]2CN2C[C@@]3(CCCc4cc(Cl)ccc43)COc3ccc(cc32)C(=O)NS1(=O)=O` [Example 11, (1S,3′R,6′R,7′S,11′S,12′R)-6-chloro-7′-(trans-5-hydroxy-1,3-dioxan-2-yl)-11′,12′-dimethyl-3,4-dihydro-2H,15′H-spiro[naphthalene-1,22′-[20]oxa[13]thia[1,14]diazatetracyclo [14.7.2.0~3,6~.0~19,24~]pentacosa[16,18,24]trien]-15′-one 13′,13′-dioxide], the values for the IC50 in test [1] (16 h) and in test [2] were 260 nM and 0.29 nM, respectively.

On to `C[C@@H]1[C@@H](C)CCC[C@H]([C@H]2OC[C@H](O)CO2)[C@@H]2CC[C@H]2CN2C[C@@]3(CCCc4cc(Cl)ccc43)COc3ccc(cc32)C(=O)NS1(=O)=O` [Example 12, (1S,3′R,6′R,7′S,11′S,12′R)-6-chloro-7′-(trans-5-hydroxy-1,3-dioxan-2-yl)-11′,12′-dimethyl-3,4-dihydro-2H,15′H-spiro[naphthalene-1,22′-[20]oxa[13]thia[1,14]diazatetracyclo [14.7.2.0~3,6~.0~19,24~]pentacosa[16,18,24]trien]-15′-one 13′,13′-dioxide], for which the IC50 in test [1] (16 h) is 668 nM; in test [2] it was 0.382 nM.

As for `C[C@@H]1[C@@H](C)CCC[C@H]([C@H]2OC[C@H](O)CO2)[C@@H]2CC[C@H]2CN2C[C@@]3(CCCc4cc(Cl)ccc43)COc3ccc(cc32)C(=O)NS1(=O)=O` [Example 13, (1S,3′R,6′R,7′S,11′S,12′R)-6-chloro-7′-(trans-5-hydroxy-1,3-dioxan-2-yl)-11′,12′-dimethyl-3,4-dihydro-2H,15′H-spiro[naphthalene-1,22′-[20]oxa[13]thia[1,14]diazatetracyclo [14.7.2.0~3,6~.0~19,24~]pentacosa[16,18,24]trien]-15′-one 13′,13′-dioxide], the figures for the IC50 in test [1] (16 h) and in test [2] were 635 nM and 0.555 nM, respectively.

Take `C[C@@H]1[C@@H](C)CCC[C@H]([C@H]2OC[C@H](O)CO2)[C@@H]2CC[C@H]2CN2C[C@@]3(CCCc4cc(Cl)ccc43)COc3ccc(cc32)C(=O)NS1(=O)=O` [Example 14, (1S,3′R,6′R,7′S,11′S,12′R)-6-chloro-7′-(trans-5-hydroxy-1,3-dioxan-2-yl)-11′,12′-dimethyl-3,4-dihydro-2H,15′H-spiro[naphthalene-1,22′-[20]oxa[13]thia[1,14]diazatetracyclo [14.7.2.0~3,6~.0~19,24~]pentacosa[16,18,24]trien]-15′-one 13′,13′-dioxide]: the values for the IC50 in test [1] (16 h) and in test [2] were 1990 nM and 0.765 nM, respectively.

Take `C[C@@H]1[C@@H](C)CCC[C@H]([C@H]2OC[C@@H](N3CCCC3)CO2)[C@@H]2CC[C@H]2CN2C[C@@]3(CCCc4cc(Cl)ccc43)COc3ccc(cc32)C(=O)NS1(=O)=O` [Example 19, (1S,3′R,6′R,7′S,11′S,12′R)-6-chloro-11′,12′-dimethyl-7′-(cis-5-(1-pyrrolidinyl)-1,3-dioxan-2-yl)-3,4-dihydro-2H,15′H-spiro[naphthalene-1,22′-[20]oxa[13]thia[1,14]diazatetracyclo [14.7.2.0~3,6~.0~19,24~]pentacosa[16,18,24]trien]-15′-one 13′,13′-dioxide]: the IC50 is 527 nM in test [1] (16 h) and 1.05 nM in test [2].

On to `C[C@@H]1[C@@H](C)CCC[C@H]([C@H]2OC[C@@H](N3CCCC3)CO2)[C@@H]2CC[C@H]2CN2C[C@@]3(CCCc4cc(Cl)ccc43)COc3ccc(cc32)C(=O)NS1(=O)=O` [Example 22, (1S,3′R,6′R,7′S,11′S,12′R)-6-chloro-11′,12′-dimethyl-7′-(cis-5-(1-pyrrolidinyl)-1,3-dioxan-2-yl)-3,4-dihydro-2H,15′H-spiro[naphthalene-1,22′-[20]oxa[13]thia[1,14]diazatetracyclo [14.7.2.0~3,6~.0~19,24~]pentacosa[16,18,24]trien]-15′-one 13′,13′-dioxide], for which the IC50 in test [1] (16 h) was determined as 65 nM; in test [2], 0.444 nM.

As to `CCN[C@H]1CO[C@H]([C@H]2CCC[C@H](C)[C@@H](C)S(=O)(=O)NC(=O)c3ccc4c(c3)N(C[C@@H]3CC[C@H]32)C[C@@]2(CCCc3cc(Cl)ccc32)CO4)OC1` [Example 27, (1S,3′R,6′R,7′S,11′S,12′R)-6-chloro-7′-(trans-5-(ethylamino)-1,3-dioxan-2-yl)-11′,12′-dimethyl-3,4-dihydro-2H,15′H-spiro[naphthalene-1,22′-[20]oxa[13]thia[1,14]diazatetracyclo [14.7.2.0~3,6~.0~19,24~]pentacosa[16,18,24]trien]-15′-one 13′,13′-dioxide], the IC50 in test [1] (Homo sapiens, OPM-2, 16 h) was 155 nM; in test [2], 0.37 nM.

`CCN(CC)[C@H]1CO[C@H]([C@H]2CCC[C@H](C)[C@@H](C)S(=O)(=O)NC(=O)c3ccc4c(c3)N(C[C@@H]3CC[C@H]32)C[C@@]2(CCCc3cc(Cl)ccc32)CO4)OC1` [Example 28, (1S,3′R,6′R,7′S,11′S,12′R)-6-chloro-7′-(trans-5-(diethylamino)-1,3-dioxan-2-yl)-11′,12′-dimethyl-3,4-dihydro-2H,15′H-spiro[naphthalene-1,22′-[20]oxa[13]thia[1,14]diazatetracyclo [14.7.2.0~3,6~.0~19,24~]pentacosa[16,18,24]trien]-15′-one 13′,13′-dioxide]: the IC50 in test [1] (Homo sapiens, OPM-2, 16 h) amounted to 403 nM; in test [2], 0.477 nM.

`CC(=O)N1C[C@@H]2O[C@@H]([C@H]3CCC[C@H](C)[C@@H](C)S(=O)(=O)NC(=O)c4ccc5c(c4)N(C[C@@H]4CC[C@H]43)C[C@@]3(CCCc4cc(Cl)ccc43)CO5)O[C@@H]2C1` [Example 36, (1S,3′R,6′R,7′S,11′S,12′R)-7′-((2r,3aR,6aS)-5-acetyltetrahydro-3aH-[1,3]dioxolo[4,5-c]pyrrol-2-yl)-6-chloro-11′,12′-dimethyl-3,4-dihydro-2H,15′H-spiro[naphthalene-1,22′-[20]oxa[13]thia[1,14]diazatetracyclo [14.7.2.0~3,6~.0~19,24~]pentacosa[16,18,24]trien]-15′-one 13′,13′-dioxide]: the figures for the IC50 in test [1] (16 h) and in test [2] were 169 nM and 0.217 nM, respectively.

In the case of `CC(=O)N1C[C@@H]2O[C@H]([C@H]3CCC[C@H](C)[C@@H](C)S(=O)(=O)NC(=O)c4ccc5c(c4)N(C[C@@H]4CC[C@H]43)C[C@@]3(CCCc4cc(Cl)ccc43)CO5)O[C@@H]2C1` [Example 37, (1S,3′R,6′R,7′S,11′S,12′R)-7′-((2s,3aR,6aS)-5-acetyltetrahydro-3aH-[1,3]dioxolo[4,5-c]pyrrol-2-yl)-6-chloro-11′,12′-dimethyl-3,4-dihydro-2H,15′H-spiro[naphthalene-1,22′-[20]oxa[13]thia[1,14]diazatetracyclo [14.7.2.0~3,6~.0~19,24~]pentacosa[16,18,24]trien]-15′-one 13′,13′-dioxide], the IC50 in test [1] (16 h) was 148 nM; in test [2], 0.098 nM.

The record behind these values is US11364248B2 (AMGEN INC., priority 2017, dated 2022).
